Assays:
D2 -receptors = biological target: T1, D2 -receptors (Oryctolagus cuniculus, UniProt G1T1Q0); test: perfused rabbit ear artery test
T1 construct: In the perfused rabbit ear artery test; from tissue; host or cells: perfused rabbit ear artery (receptors on sympathetic nerve terminals)

cardio-accelerator nerve = cardio-accelerator nerve preparation in vivo in the dog
perfused hind limb = perfused hind limb preparation in vivo in the dog
[1] = tested on: DOCA-salt hypertensive rats; test: intravenous infusion in DOCA-salt hypertensive rats; type: in vivo, rat
Source text: (§1) Intravenous infusion of this species of this invention in the DOCA-salt hypertensive and spontaneously hypertensive rats reduced blood pressure and heart rate.

[2] = tested on: spontaneously hypertensive rats; test: intravenous infusion in spontaneously hypertensive rats; type: in vivo, rat
Source text: as §1

[3] = tested on: conscious DOCA salt hypertensive rats; test: oral dosing in conscious DOCA salt hypertensive rats; type: in vivo, rat; conditions: oral doses of 10 mg/kg
[4] = absorption from the gastrointestinal tract of rats; type: in vivo, rat; conditions: oral, compared with the 7-hydroxy congener
[5] = tested on: presynaptic α-dopaminergic receptors (D2 -receptors); test: D2-agonist selectivity (general statement); conditions: peripheral
Source text: Otherwise speaking, the main focus of action is at the presynaptic α-dopaminergic receptors which may also be called "D2 -receptors." Activation of the D2 -receptors on the sympathetic nerve terminals inhibits the release of norepinephrine, thereby, promoting vasodilation, among other beneficial cardiovascular actions and decreasing sympathetic side-effects caused by norepinephrine release in certain abnormal cardiovascular conditions.

T1 sequence (G1T1Q0 1-443): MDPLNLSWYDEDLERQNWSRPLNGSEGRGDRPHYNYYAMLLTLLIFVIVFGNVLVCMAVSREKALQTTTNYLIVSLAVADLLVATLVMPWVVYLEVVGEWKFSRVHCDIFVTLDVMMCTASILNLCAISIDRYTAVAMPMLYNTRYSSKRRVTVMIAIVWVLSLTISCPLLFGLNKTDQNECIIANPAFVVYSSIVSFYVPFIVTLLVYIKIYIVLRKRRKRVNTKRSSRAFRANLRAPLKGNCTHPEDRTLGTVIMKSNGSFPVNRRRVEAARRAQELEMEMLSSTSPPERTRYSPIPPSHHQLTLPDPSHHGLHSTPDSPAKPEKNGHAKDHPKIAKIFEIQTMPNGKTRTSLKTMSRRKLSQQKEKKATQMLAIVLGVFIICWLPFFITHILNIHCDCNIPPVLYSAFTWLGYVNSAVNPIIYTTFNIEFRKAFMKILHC

CCCN(CCC)CCc1cccc2c1CC(=O)N2.Cl [4-(2-di-n-propylaminoethyl)-2(3H)-indolone hydrochloride]
EC50 (D2 -receptors): 72 nM
activity in vivo (cardio-accelerator nerve): active
activity in vivo (perfused hind limb): active
tachyphylaxis (perfused hind limb): did not cause tachyphylaxis
blood pressure [1]: reduced
heart rate [1]: reduced
blood pressure [2]: reduced
heart rate [2]: reduced
anti-hypertensive effect [3]: demonstrated an anti-hypertensive effect
absorption from the gastrointestinal tract [4]: more readily absorbed
D2-agonist selectivity [5]: selective peripheral D2 -agonists

Source: patent publication US4588740A, “Pharmaceutical methods using 4-aminoalkyl-2(3H)-indolones” (priority 1983, dated 1986)
